US20240067632A1, “WEE1 Degrading Compounds and Uses Thereof” (Bristol-Myers Squibb Company, priority 2022, published 2024)
Where two headings read alike, the source gives them in different places.

Key:
[1] = target: T1, WEE1 (Homo sapiens, UniProt P30291+Q96SW2); test: WEE1-ePL degradation assay (LentiX-WEE1-ePL-GSPT1-ND cells, InCELL Hunter luminescence, 4 h); assay type: cell-based; settings: 293T-LentiX WEE1-ePL cells; for DC50: read-out: 293T-LentiX WEE1-ePL Degradation 4 hr (EC50)
T1 construct: C-terminal ePL-tagged (DiscoverX, Fremont, CA) full-length WEE1 expression construct; expressed in transfected cells; host or cells: LentiX-HEK293T (Invitrogen), lentiviral transduction; co-expressing GSPT1-GN (G576N, lacking the first 158 amino acids)
In short: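 HEK293T cells stably expressing C-terminal ePL-tagged full-length WEE1, 2500 cells/well, treated 4 h at 37° C with a 10-point 3-fold series from 1 or 10 uM. Remaining WEE1-ePL read by InCELL Hunter luminescence after 30 min. EC50 came from a four-parameter logistic fit, with Ymax set from DMSO control.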

[2] = test system: MKN45 cells; test: MKN45 cell proliferation assay (Cell-Titer-Glo, 120 h); assay type: cell-based; settings: for EC50: Homo sapiens, MKN-45, 120 h, Cell-Titer-Glo, read-out: MKN45 Cell Prolif. 120 hr (EC50); for MKN45 Cell Prolif. 120 hr (Ymin-Obs): minimal percent of DMSO control observed in the concentrations tested
In short: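 Cells seeded at 400/well onto pre-printed 10-point half-log dilutions (top 1 or 10 uM, 0.1% DMSO final), in triplicate, and grown 120 h at 37 C. Viability by Cell-Titer-Glo luminescence, blank-subtracted and normalised to DMSO; EC50 from four-parameter logistic fit, with observed minimal % of control recorded as Ymin-obs.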

[3] = lower limit of the fit (Ymin=0 luciferase inhibitor, Ymax DMSO control)
[4] = lower limit of the fit (0 = luciferase inhibitor, Ymax = DMSO control)

Structure (SMILES) | 293T-LentiX WEE1-ePL Degradation 4 hr (Ymin) [1, 3] | DC50 [1] | EC50 [2] | 293T-LentiX WEE1-ePL Degradation 4 hr (Ymin) [1, 4] | EC50 ([2]; growth inhibition) | MKN45 Cell Prolif. 120 hr (Ymin-Obs) [2]
O=C1CCC(N2Cc3ccc(O[C@H]4CCN(Cc5ccc6ncccc6c5)C4)cc3C2=O)C(=O)N1 (stereo partly drawn) [3-(1-oxo-6-{[(3S)-1-[(quinolin-6-yl)methyl]pyrrolidin-3-yl]oxy}-2,3-dihydro-1H-isoindol-2-yl)piperidine-2,6-dione] | – | – | – | 88.79 | 14.6 nM | 82.37
Cc1ccc2cc(CN3CC[C@H](Oc4ccc5c(c4)CN(C4CCC(=O)NC4=O)C5=O)[C@H]3C)ccc2n1 (stereo partly drawn) [3-(5-{[(2R,3S)-2-methyl-1-[(2-methylquinolin-6-yl)methyl]pyrrolidin-3-yl]oxy}-1-oxo-2,3-dihydro-1H-isoindol-2-yl)piperidine-2,6-dione] | – | 16.7 nM | – | 34 | 339 nM | 28.935
Cc1ccc2cc(CN3CC[C@H](Oc4ccc5c(c4)CN(C4CCC(=O)NC4=O)C5=O)[C@@H]3C)ccc2n1 (stereo partly drawn) [3-(5-{[(2S,3S)-2-methyl-1-[(2-methylquinolin-6-yl)methyl]pyrrolidin-3-yl]oxy}-1-oxo-2,3-dihydro-1H-isoindol-2-yl)piperidine-2,6-dione] | – | – | – | 99.5 | > 10000 nM | 87.455
O=C1CCC(N2Cc3cc(O[C@@H]4CN(Cc5ccc6nc(C7CCOCC7)ccc6c5)CC4(F)F)ccc3C2=O)C(=O)N1 (stereo partly drawn) [3-(5-{[(3R)-4,4-difluoro-1-{[2-(oxan-4-yl)quinolin-6-yl]methyl}pyrrolidin-3-yl]oxy}-1-oxo-2,3-dihydro-1H-isoindol-2-yl)piperidine-2,6-dione] | – | 39.1 nM | – | 27.9 | 21.3 nM | 10.78
O=C1CCC(N2Cc3cc(O[C@@H]4CN(Cc5ccc6nc([C@@H]7CCOC7)ccc6c5)C[C@H]4F)ccc3C2=O)C(=O)N1 (stereo partly drawn) [3-(5-{[(3R,4R)-4-fluoro-1-({2-[(3S)-oxolan-3-yl]quinolin-6-yl}methyl)pyrrolidin-3-yl]oxy}-1-oxo-2,3-dihydro-1H-isoindol-2-yl)piperidine-2,6-dione] | – | 9.69 nM | – | 29.32 | 29.1 nM | 20.1
O=C1CCC(N2Cc3cc(O[C@@H]4CN(Cc5ccc6nc(C7CCOCC7)ccc6c5)C[C@H]4F)ccc3C2=O)C(=O)N1 (stereo partly drawn) [3-(5-{[(3R,4R)-4-fluoro-1-{[2-(oxan-4-yl)quinolin-6-yl]methyl}pyrrolidin-3-yl]oxy}-1-oxo-2,3-dihydro-1H-isoindol-2-yl)piperidine-2,6-dione] | – | 14.6 nM | – | 36.81 | 28.6 nM | 30.89
CO[C@@H]1CN(Cc2ccc3nc(C4CCOCC4)ccc3c2)C[C@H]1Oc1ccc2c(c1)CN(C1CCC(=O)NC1=O)C2=O (stereo partly drawn) [3-(5-{[(3R,4R)-4-methoxy-1-{[2-(oxan-4-yl)quinolin-6-yl]methyl}pyrrolidin-3-yl]oxy}-1-oxo-2,3-dihydro-1H-isoindol-2-yl)piperidine-2,6-dione] | – | 11.7 nM | – | 37.67 | 16.9 nM | 22.78
O=C1CCC(N2Cc3cc(O[C@@H]4CN(Cc5ccc6nc(C7CCOCC7)ccc6c5)C[C@@H]4F)ccc3C2=O)C(=O)N1 (stereo partly drawn) [3-(5-{[(3R,4S)-4-fluoro-1-{[2-(oxan-4-yl)quinolin-6-yl]methyl}pyrrolidin-3-yl]oxy}-1-oxo-2,3-dihydro-1H-isoindol-2-yl)piperidine-2,6-dione] | – | 13.2 nM | – | 36 | 7.13 nM | 8.923
CNC1(c2ccc3cc(CN4CC[C@H](Oc5ccc6c(c5)CN(C5CCC(=O)NC5=O)C6=O)C4)ccc3n2)COC1 (stereo partly drawn) [3-(5-{[(3S)-1-({2-[3-(methylamino)oxetan-3-yl]quinolin-6-yl}methyl)pyrrolidin-3-yl]oxy}-1-oxo-2,3-dihydro-1H-isoindol-2-yl)piperidine-2,6-dione] | – | 37.6 nM | – | 36 | 19.9 nM | 9.16
CN(C)C1CCN(c2ccc3cc(CN4CC[C@H](Oc5ccc6c(c5)CN(C5CCC(=O)NC5=O)C6=O)C4)ccc3n2)CC1 (stereo partly drawn) [3-(5-{[(3S)-1-({2-[4-(dimethylamino)piperidin-1-yl]quinolin-6-yl}methyl)pyrrolidin-3-yl]oxy}-1-oxo-2,3-dihydro-1H-isoindol-2-yl)piperidine-2,6-dione] | 32.07 | 26.2 nM | 19.7 nM | – | – | 15.14
CNC1CCN(c2ccc3cc(CN4CC[C@H](Oc5ccc6c(c5)CN(C5CCC(=O)NC5=O)C6=O)C4)ccc3n2)CC1 (stereo partly drawn) [3-(5-{[(3S)-1-({2-[4-(methylamino)piperidin-1-yl]quinolin-6-yl}methyl)pyrrolidin-3-yl]oxy}-1-oxo-2,3-dihydro-1H-isoindol-2-yl)piperidine-2,6-dione] | 38.12 | 64.4 nM | 84.9 nM | – | – | 25.09

More lines, in order of falling DC50 [1], values ahead:

293T-LentiX WEE1-ePL Degradation 4 hr (Ymin) [1, 3] | DC50 [1] | EC50 [2] | 293T-LentiX WEE1-ePL Degradation 4 hr (Ymin) [1, 4] | EC50 ([2]; growth inhibition) | Structure (SMILES) | MKN45 Cell Prolif. 120 hr (Ymin-Obs) [2]
– | 8.74 nM | – | 27.98 | 42.4 nM | O=C1CCC(N2Cc3ccc(O[C@H]4CCN(Cc5cnc6ccccc6c5)C4)cc3C2=O)C(=O)N1 (stereo partly drawn) [3-(1-oxo-6-{[(3S)-1-[(quinolin-3-yl)methyl]pyrrolidin-3-yl]oxy}-2,3-dihydro-1H-isoindol-2-yl)piperidine-2,6-dione] | 12.43
30.81 | 8.49 nM | 8.42 nM | – | – | O=C1CCC(N2Cc3cc(O[C@@H]4CN(Cc5ccc6nc([C@H]7CCOC7)ccc6c5)CC4(F)F)ccc3C2=O)C(=O)N1 (stereo partly drawn) [3-(5-{[(3R)-4,4-difluoro-1-({2-[(3R)-oxolan-3-yl]quinolin-6-yl}methyl)pyrrolidin-3-yl]oxy}-1-oxo-2,3-dihydro-1H-isoindol-2-yl)piperidine-2,6-dione] | 8.764
34.71 | 8.43 nM | 18.7 nM | – | – | O=C1CCC(N2Cc3cc(O[C@@H]4CN(Cc5ccc6nc([C@H]7CCOC7)ccc6c5)C[C@H]4F)ccc3C2=O)C(=O)N1 (stereo partly drawn) [3-(5-{[(3R,4R)-4-fluoro-1-({2-[(3R)-oxolan-3-yl]quinolin-6-yl}methyl)pyrrolidin-3-yl]oxy}-1-oxo-2,3-dihydro-1H-isoindol-2-yl)piperidine-2,6-dione] | 20.39
30.61 | 8.39 nM | 9.93 nM | – | – | O=C1CCC(N2Cc3cc(O[C@@H]4CN(Cc5ccc6nc([C@@H]7CCOC7)ccc6c5)CC4(F)F)ccc3C2=O)C(=O)N1 (stereo partly drawn) [3-(5-{[(3R)-4,4-difluoro-1-({2-[(3S)-oxolan-3-yl]quinolin-6-yl}methyl)pyrrolidin-3-yl]oxy}-1-oxo-2,3-dihydro-1H-isoindol-2-yl)piperidine-2,6-dione] | 9.159
33.6 | 5.69 nM | 9.42 nM | – | – | O=C1CCC(N2Cc3cc(O[C@@H]4CN(Cc5ccc6nc([C@@H]7CCOC7)ccc6c5)C[C@@H]4F)ccc3C2=O)C(=O)N1 (stereo partly drawn) [3-(5-{[(3R,4S)-4-fluoro-1-({2-[(3S)-oxolan-3-yl]quinolin-6-yl}methyl)pyrrolidin-3-yl]oxy}-1-oxo-2,3-dihydro-1H-isoindol-2-yl)piperidine-2,6-dione] | 10.88
30.72 | 3.84 nM | 4.96 nM | – | – | O=C1CCC(N2Cc3cc(O[C@@H]4CN(Cc5ccc6nc([C@H]7CCOC7)ccc6c5)C[C@@H]4F)ccc3C2=O)C(=O)N1 (stereo partly drawn) [3-(5-{[(3R,4S)-4-fluoro-1-({2-[(3R)-oxolan-3-yl]quinolin-6-yl}methyl)pyrrolidin-3-yl]oxy}-1-oxo-2,3-dihydro-1H-isoindol-2-yl)piperidine-2,6-dione] | 13.2
20.92 | 3.65 nM | 2.53 nM | – | – | COC[C@@H]1CCCC[C@H]1c1ccc2cc(CN3CC[C@H](Oc4ccc5c(c4)CN(C4CCC(=O)NC4=O)C5=O)C3)ccc2n1 (stereo partly drawn) [3-(5-{[(3S)-1-({2-[(1R,2R)-2-(methoxymethyl)cyclohexyl]quinolin-6-yl}methyl)pyrrolidin-3-yl]oxy}-1-oxo-2,3-dihydro-1H-isoindol-2-yl)piperidine-2,6-dione] | 12.91
27.14 | 3.64 nM | 22.6 nM | – | – | O=C1CCC(N2Cc3cc(O[C@@H]4CN(Cc5ccc6nc([C@H]7CCOC7)ccc6c5)C[C@H]4C(F)(F)F)ccc3C2=O)C(=O)N1 (stereo partly drawn) [3-(1-oxo-5-{[(3S,4R)-1-({2-[(3R)-oxolan-3-yl]quinolin-6-yl}methyl)-4-(trifluoromethyl)pyrrolidin-3-yl]oxy}-2,3-dihydro-1H-isoindol-2-yl)piperidine-2,6-dione] | 24.26
